From BigSolDB 2.1

CCn1c2ccccc2c2cc(-n3nncc3-c3ccccc3)ccc21
Settings | solubility (mole fraction)
in acetonitrile, 281.7 K | 0.00188
in acetonitrile, 287.8 K | 0.00249
in acetonitrile, 295.4 K | 0.00335
in acetonitrile, 304.8 K | 0.00485
in acetonitrile, 312.3 K | 0.0066
in acetonitrile, 319.4 K | 0.00933
in acetonitrile, 325 K | 0.0125
in ethanol, 279.2 K | 0.000406
in ethanol, 281.5 K | 0.000428
in ethanol, 285.8 K | 0.000529
in ethanol, 288.8 K | 0.000598
in ethanol, 291.9 K | 0.000685
in ethanol, 297.2 K | 0.000847
in ethanol, 307.8 K | 0.00136
in ethanol, 313 K | 0.0017
in ethanol, 318.9 K | 0.00222
in ethanol, 323.2 K | 0.00274
in ethanol, 329 K | 0.00376
in ethyl acetate, 278.9 K | 0.00403
in ethyl acetate, 282.5 K | 0.00438
in ethyl acetate, 288.6 K | 0.00531
in ethyl acetate, 293.8 K | 0.0062
in ethyl acetate, 296.6 K | 0.00681
in ethyl acetate, 301.9 K | 0.00793
in ethyl acetate, 306.3 K | 0.00903
in ethyl acetate, 310.5 K | 0.0103
in ethyl acetate, 318 K | 0.0129
in ethyl acetate, 322.8 K | 0.0154
in ethyl acetate, 326.9 K | 0.0182
in isopropanol, 279.4 K | 0.000218
in isopropanol, 290.4 K | 0.000352
in isopropanol, 294.2 K | 0.000467
in isopropanol, 298.4 K | 0.000571
in isopropanol, 300.9 K | 0.000684
in isopropanol, 304.6 K | 0.000794
in isopropanol, 307.7 K | 0.000913
in isopropanol, 311 K | 0.00113
in isopropanol, 319.5 K | 0.00181
in isopropanol, 324.1 K | 0.00226
in isopropanol, 330.2 K | 0.00329
in methanol, 279.3 K | 0.000409
in methanol, 281.9 K | 0.000468
in methanol, 288.2 K | 0.000591
in methanol, 300.7 K | 0.000949
in methanol, 306.1 K | 0.00116
in methanol, 314.8 K | 0.00165
in methanol, 320.7 K | 0.00222
in methanol, 325 K | 0.00279
in n-butanol, 280.1 K | 0.000585
in n-butanol, 283.7 K | 0.000684
in n-butanol, 288.6 K | 0.000848
in n-butanol, 292.7 K | 0.00111
in n-butanol, 298.2 K | 0.00138
in n-butanol, 307.4 K | 0.00221
in n-butanol, 312.6 K | 0.00276
in n-butanol, 320.4 K | 0.00401
in n-butanol, 331.5 K | 0.00688
in n-propanol, 283 K | 0.000556
in n-propanol, 285.1 K | 0.00067
in n-propanol, 288.8 K | 0.000774
in n-propanol, 297.1 K | 0.00111
in n-propanol, 307 K | 0.00177
in n-propanol, 312.2 K | 0.00223
in n-propanol, 319.4 K | 0.00314
in n-propanol, 325.2 K | 0.00418
in n-propanol, 330.2 K | 0.00554
in sec-butanol, 279.9 K | 0.000287
in sec-butanol, 283.2 K | 0.000366
in sec-butanol, 291.7 K | 0.000592
in sec-butanol, 294.6 K | 0.00073
in sec-butanol, 298.4 K | 0.000892
in sec-butanol, 306.7 K | 0.00149
in sec-butanol, 315.7 K | 0.0024
in sec-butanol, 319.1 K | 0.00295
in sec-butanol, 321.3 K | 0.0034
in sec-butanol, 329.5 K | 0.0053
